Results on two molecules are retold here after patent publication US6949250B2, “Selective algaecides for control of cyanochloronta” (The United States of America as represented by the …, priority 2002, dated 2005).

What all share (assay type): in vivo
In data set [1] the test system is 2-methylisoborneol. The data set can be described thus: DNA2-59-1 first pond efficacy study: MIB levels. The note with it: 0.3 and 1 μM. The method, then: (§1) The method described by Schrader et al. (2000) was used to determine the potential for using the anthraquinone derivatives as selective algicides in catfish aquaculture ponds. All catfish ponds used in efficacy tests were maintained using commercial pond management practices and were located at the Thad Cochran Pond Facility, Mississippi State University, Stoneville, Miss. Anthraquinone analogs were dissolved in deionized water before application to water within the limnocorrals.
(§2) Limnocorrals in which test compound was applied to the enclosed water were randomly selected, and control (no test compound applied) limnocorrals were included in each efficacy study. […]
(§3) In the first study, application rates of 0.1 μM (37.7 μg/L), 0.3 μM ([…]), and 1.0 μM (377 μg/L) of DNA2-59-1 were tested using limnocorrals (three replicates per concentration) that were of the same type used for testing DNA1-19-1. […] Water samples were also analyzed to determine the persistence of DNA2-59-1 in the pond water, and this analysis was performed by using high-pressure liquid chromatography (HPLC) (method and results are described later).

Data set [2] deals with geosmin. In words: DNA2-59-1 first pond efficacy study: geosmin levels. To be noted: 1 μM. As to the method:
as §1, §2, §3

In data set [3] the test system is Anabaena circinalis. The data set can be described thus: DNA2-59-1 first pond efficacy study: Anabaena circinalis abundance. As to the method:
as §1, §2, §3

Data set [4] relates to green algae. In words: DNA2-59-1 first pond efficacy study: green algae abundance. To be noted: first study, 0.1, 0.3 and 1 μM. As to the method:
as §1, §2, §3

Data set [5] has as its system chlorophyll a. In words: DNA2-59-1 second pond efficacy study: chlorophyll a. To be noted: 0.3 μM, for three days after application. The method, then:
as §1
(§4) Limnocorrals in which test compound was applied to the enclosed water were randomly selected, and control (no test compound applied) limnocorrals were included in each efficacy study. For each sampling, two water samples (250 mL) were obtained from within each limnocorral (approximately 6-8 cm below the water surface and from opposite sides of each limnocorral) and mixed together in a 500 mL sample bottle to provide a representative sample of the water contained within the limnocorral.
(§5) In the second efficacy test with DNA2-59-1, six limnocorrals (1.53 m in diameter and 1.53 m high) were placed in a 0.1-ha earthen pond containing a heavy bloom of O. perornata. The same delay in mixing the water within the limnocorrals used in the first efficacy study was utilized. Water within three randomly selected limnocorrals received an application rate of 0.3 μM DNA2-59-1, and the other three limnocorrals were controls. […]

The subject of data set [6] is Oscillatoria perornata. In words: DNA2-59-1 second pond efficacy study: O. perornata abundance. The note with it: 0.3 μM, within three days of application. The method, then:
as §1, §4, §5

Data set [7] has as its system Oscillatoria geminata. The data set can be described thus: DNA2-59-1 second pond efficacy study: Oscillatoria geminata abundance. To be noted: 0.3 μM. As to the method: as §1, §4, §5
Data set [8] has as its system Oscillatoria agardhii. In words: DNA2-59-1 second pond efficacy study: Oscillatoria agardhii abundance. To be noted: 0.3 μM. As to the method: as §1, §4, §5
The subject of data set [9] is Oscillatoria agardhii. The data set can be described thus: DNA2-59-1 third pond efficacy study: Oscillatoria agardhii abundance. To be noted: 0.3 μM. The method, then: as §1, §4
(§6) For the third efficacy test with DNA2-59-1, twelve limnocorrals (2.44 m in diameter and 1.53 m high) were placed in a 4-ha earthen pond containing a bloom of O. perornata. […]

The subject of data set [10] is Microcystis spp. In words: DNA2-59-1 third pond efficacy study: Microcystis spp. abundance. The note with it: 0.3 μM. The method, then:
as §1, §4, §6

The test system of data set [11] is diatoms. In words: DNA2-59-1 third pond efficacy study: diatom abundance. The note with it: 0.3 μM, from three days after application. The method, then:
as §1, §4, §6

In data set [12] the test system is chlorophyll a. The data set can be described thus: DNA1-19-1 first pond efficacy study (limnocorrals): chlorophyll a. To be noted: 2 μM, within 24 hours.
For data set [13], the system named is Oscillatoria perornata. The data set can be described thus: DNA1-19-1 first pond efficacy study (limnocorrals): O. perornata abundance.
The test system of data set [14] is chlorophyll a. In words: DNA1-19-1 second and third pond efficacy studies: chlorophyll a. The note with it: second and third efficacy study; 1, 0.3, and 0.1 μM. As to the method: as §1, §4
(§7) In the second study with DNA1-19-1, twelve limnocorrals that were the same size as those used in the first study were placed in another 4-ha earthen catfish pond. […] The sampling regime and procedures used in the first study were followed in a similar manner, except that water samples were obtained before DNA1-19-1 application, 16 hours after application, and at days 2, 4, and 7. […]

Data set [15] concerns 2-methylisoborneol. In words: DNA1-19-1 second and third pond efficacy studies: MIB levels. To be noted: second and third efficacy study; 1, 0.3, and 0.1 μM. The method, then:
as §1, §4, §7

For the molecule `CC(C)NCc1ccc2c(c1)C(=O)c1ccccc1C2=O` [DNA2-59-1, 2-[methylamino-N-(1′-methylethyl)]-9,10-anthraquinone monophosphate], in data set [1], the “decrease of MIB levels compared to controls and 0.1 μM (result in words)” value is “to a greater degree and significantly more”. Moreover, in data set [2], the “decrease of geosmin levels compared to controls and 0.1 and 0.3 μM (result in words)” value was “to a greater degree and significantly more”. The “Numbers of Anabaena circinalis compared to controls (result in words)” value in [3] (1 μM) is “significantly reduced”. Moreover, the “filaments of A. circinalis present (result in words)” value in data set [3] (16 hours after application of 1 μM) is listed as “no filaments of A. circinalis were observed to be present”. In addition, the “Numbers of green algae compared to controls (result in words)” value in data set [4] was “not significantly affected”. For the same molecule, in [5], the “Chlorophyll a levels (result in words)” value is on record as “significantly lower”. In addition, in data set [6], the “Numbers of O. perornata (result in words)” value was “significantly and dramatically reduced”. Moreover, the “Numbers of Oscillatoria geminata (result in words)” value in data set [7] is “reduced by application of 0.3 μM DNA2-59-1, though not significantly”. Besides, the “Numbers of Oscillatoria agardhii (result in words)” value in data set [8] is on record as “not affected”; in data set [9], “significantly reduced”. In [10], the “Microcystis spp. compared to control limnocorrals (result in words)” value was “not greatly affected”. Besides, the “Numbers of diatoms vs control limnocorrals (result in words)” value in data set [11] is given as “significantly higher”.
Take `CCN(CC)CCCC(C)NCc1ccc2c(c1)C(=O)c1ccccc1C2=O.O=P(O)(O)O.O=P(O)(O)O` (centres unmarked) [DNA1-19-1, 2-[methylamino-N-(1′-methyl-4′-N,N-diethylaminobutyl)]-9,10-anthraquinone diphosphate]: in data set [12], the “Chlorophyll a levels (result in words)” value was “decreased significantly”. In addition, the “selectively reducing numbers of O. perornata and MIB levels in pond water (result in words)” value in data set [13] (applied at 2 μM) is “effective”. Moreover, the “Numbers of filaments of O. perornata (result in words)” value in [13] (first study, 2 μM, numbers began to increase within 3 days) was “significantly reduced”. Also, the “chlorophyll a levels compared to controls (result in words)” value in [14] is recorded as “lack of reduction”. In addition, the “2-methylisoborneol levels compared to controls (result in words)” value in data set [15] is listed as “lack of reduction”.
